Patent US6566376B1, “Diphenyl-piperidine derivative” (AstraZeneca UK Limited, priority 1999, dated 2003)
Structures can show the parent of a compound that is named as a salt.

| melting point | Compound |
| --- | --- |
| 104 to 105 °C | OCc1cn(Cc2ccc(Cl)cc2)nc1CN1CCC(c2ccccc2)(c2ccccc2)CC1 |
| 101 to 102 °C | Clc1ccc(Cn2ccc(CN3CCC(c4ccccc4)(c4ccccc4)CC3)n2)c(Cl)c1 (as salt: hydrochloride) |
| 186 to 187 °C | Clc1ccc(Cc2ncc(CN3CCC(c4ccccc4)(c4ccccc4)CC3)[nH]2)cc1 (as salt: hydrochloride) |
| 181 to 182 °C | CN(C)C(=O)COc1cc(Cl)ccc1Cn1ccc(CN2CCC(c3ccccc3)(c3ccccc3)CC2)n1 (as salt: hydrochloride) |
| 227 to 228 °C | NC(=O)c1c(CN2CCC(c3ccccc3)(c3ccccc3)CC2)ncn1Cc1ccc(Cl)cc1 |
| 135 to 136 °C | O=C(O)c1c(CN2CCC(c3ccccc3)(c3ccccc3)CC2)ncn1Cc1ccc(Cl)cc1 |

More lines, now with the values behind:

| Compound | melting point |
| --- | --- |
| COc1cc(Cl)ccc1Cn1ccc(CN2CCC(c3ccccc3)(c3ccccc3)CC2)n1 (as salt: hydrochloride) | 73 to 74 °C |
| Cc1ccc(Cn2ccc(CN3CCC(c4ccccc4)(c4ccccc4)CC3)n2)cc1 (as salt: hydrochloride) | 147 to 148 °C |
| Fc1ccc(Cn2ccc(CN3CCC(c4ccccc4)(c4ccccc4)CC3)n2)cc1 (as salt: hydrochloride) | 192 to 193 °C |
| Clc1ccc(Cn2cc(CN3CCC(c4ccccc4)(c4ccccc4)CC3)nn2)cc1 | 148 °C |
| FC(F)(F)c1ccc(Cn2ccc(CN3CCC(c4ccccc4)(c4ccccc4)CC3)n2)cc1 (as salt: hydrochloride) | 66 to 67 °C |
| Clc1ccc(Cn2nncc2CN2CCC(c3ccccc3)(c3ccccc3)CC2)cc1 | 195 °C |
| Clc1ccc(Cn2ccc(CN3CCC(c4ccccc4)(c4ccccc4)CC3)n2)cc1Cl (as salt: hydrochloride) | 191 to 192 °C |
| Clc1cccc(Cn2ccc(CN3CCC(c4ccccc4)(c4ccccc4)CC3)n2)c1 | 136 to 137 °C |
| O=C(c1cnc(Cc2ccc(Cl)cc2)[nH]1)N1CCC(c2ccccc2)(c2ccccc2)CC1 [Example 23, [2-(4-Chlorobenzyl)-1H-imidazol-5-yl](4,4-diphenyl-1-piperidinyl)methanone] | 105 to 106 °C |
| O=Cc1cn(Cc2ccc(Cl)cc2)nc1CN1CCC(c2ccccc2)(c2ccccc2)CC1 | 133 to 134 °C |
| Clc1ccc(Cn2ccc(CN3CCC(c4ccccc4)(c4ccccc4)CC3)n2)cc1 (as salt: hydrochloride) | 137 to 138 °C |
| Clc1ccc(Cn2cnc(CN3CCC(c4ccccc4)(c4ccccc4)CC3)c2)cc1 (as salt: hydrochloride) | 254 to 255 °C |
| Oc1cc(Cl)ccc1Cn1ccc(CN2CCC(c3ccccc3)(c3ccccc3)CC2)n1 (as salt: hydrochloride) | 260 to 261 °C |
| Cc1ccc(Cn2ccc(CN3CCC(c4ccccc4)(c4ccccc4)CC3)n2)cc1C | 139 to 140 °C |
